Key:
[1] = system: human nTregs; experiment: Expansion and FOXP3 expression of human nTregs from peripheral blood; assay type: cell-based
Description: In addition to mouse nTregs, atRA also stabilized FOXP3 expression of human nTregs. nTregs were isolated from human peripheral blood and expanded with anti-CD3/28 coated beads with IL-2 in the presence or absence of atRA. […] By ten days of culture control FOXP3+ cells increased 5 fold, but atRA treated nTregs increased 20 fold.

[2] = system: nTregs; experiment: Expansion of nTregs with anti-CD3/28 coated beads and IL-2; assay type: cell-based, DBA/1 mice; settings: one week, IL-2, with atRA
Experimental: (§1) To activate nTregs, CD25^+ or GFP^+ cells were stimulated with anti-CD3/CD28 coated beads (1:5, one bead to five cells), rmIL-2 (100 U/ml) (R&D) with DMSO or all-trans retinoic acid (atRA, 0.05 μM) for 3 days. To generate Th17 cells, these activated nTregs were stimulated with immobilized anti-CD3 (1 μg/ml), soluble anti-CD28 (1 μg/ml), anti-IL-4 (10 μg/ml) (BD biosciences), anti-IFN-γ and IL-6 (10 ng/ml) (BD Pharmingen) for 3 days.
(§2) For the data in FIGS. 2A and B, CD4^+CD25^+ cells were stimulated with anti-CD3/CD28 coated beads (1:5), rmIL-2 (100 U/ml) with DMSO or atRA (0.05 μM) for 7 days and the FOXP3 expression (A) and total Foxp3^+ cell numbers (B) were determined.

[3] = system: T responder cells; experiment: Suppressor assay: inhibition of [3H]-TdR uptake of T responder cells by nTregs; assay type: cell-based, DBA/1 mice
Experimental: To measure suppressive activities, responder T cells were stimulated with soluble anti-CD3 (0.025 μg/ml) and irradiated APC (1:1), nTregs pretreated with at-RA or without atRA were added to cultures at a ratio of 1:4 (one nTreg to four responder cells). After 72-hour cultures, triplicate wells were pulsed with 1 μCi of [^3H]-TdR for the final 16 hours. Cell proliferation was determined by [^3H]-TdR incorporation using scintillation counting.
(§3) In FIG. 1C, soluble IL-17A in the culture supernatants was analyzed by an ELISA. The horizontal line indicates the levels of IL-17A in the supernatant of naïve TCR-stimulated CD4^+ cells in the presence of IL-6 and TGF-β. E, the suppressive activities of nTregs in the presence of IL-6 and/or atRA were determined by the inhibition of tritiated thymidine ([^3H]-TdR) uptake.
In FIG. 2F, the suppressive activities of atRA or DMSO treated nTregs in the absence or presence of IL-6 in vitro was determined by similar methods as in FIG. 1E. P values were calculated by Student's test and indicate significant differences between atRA and control treated nTregs (P<0.05).

[4] = system: CD4+CD25+ nTregs; experiment: FOXP3 expression of activated/expanded nTregs by FACS intracellular staining; assay type: cell-based, DBA/1 mice
Experimental: as §1
For the experiments in FIG. 1D, nTregs were activated with anti-CD3/CD28 coated beads in the presence of the atRA solvent (DMSO) or atRA (0.05 μM) with or without IL-6 (10 ng/ml) for 3 days and Foxp3 expression was determined and compared to freshly isolated CD4^+CD25^+ cells by FACS intracellular staining.
as §2

[5] = system: nTregs isolated from CIA mice; experiment: nTregs isolated from CIA mice: suppressive activity by proliferation of T responder cells; assay type: cell-based, mouse; settings: anti-CD3 1 μg/ml, IL-6 10 ng/ml, atRA 0.05 μM, 7 days
Experimental: For the experiments in FIG. 7A, nTregs isolated from CIA mice were stimulated with immobilized anti-CD3 (1 μg/ml) and IL-6 (10 ng/ml) with and without atRA (0.05 μM) for 7 days. Phenotypic stability was measured by FOXP3 expression and suppressive activity was determined by the proliferation of T responder cells. CMP indicates the value of T responder cells. Values in FIG. 7A indicate the mean±SEM of three independent experiments. In the experiments in FIG. 7B, nTregs from CIA mice were expanded with anti-CD3/CD28 beads (1:5) and IL-2 (100 U/ml)±atRA (0.05 μM) for 4 days. Mice with established CIA were injected intravenously with 1×10^6 atRA treated nTregs, DMSO treated nTregs or PBS (control group) (n=6/group). The mice were examined every five days after injection and the clinical scores are indicated.

[6] = system: IL-6R (CD126, CD130), STAT3, ROR-γt in nTregs; experiment: IL-6 receptor expression and signaling in nTregs by flow cytometry; assay type: cell-based, mouse
Experimental: One potential mechanism by which atRA treatment stabilizes phenotype of nTregs, particularly suppressive function, may be through downregulation of the expression of IL-6R and IL-6R signaling. To investigate this potential mechanism, CD4^+CD25^+ cells were stimulated with anti-CD3/CD28 coated beads and IL-2 with or without atRA for 4 days. […] CD126 (IL-6Rα chain) expression was determined by flow cytometry. […] When atRA-treated nTregs were restimulated with IL-6, the decrease in IL-6 signaling was accompanied by a decrease of expression of ROR-γt (FIG. 4B), the crucial transcription factor required for Th17 cell differentiation. This finding is in agreement with reports that the combination of IL-2 and TGF-β has dramatic effects on both IL-6 receptor expression and signaling on nTreg cells. […] The p values indicate significant differences between DMSO treated and atRA treated nTregs (p<0.05, t test).

[7] = system: IL-6 Rα mRNA, p-Stat3; settings: cited from earlier work
[8] = system: CD4+CD25+ nTregs; experiment: Th17 conversion of nTregs stimulated with anti-CD3/CD28 and IL-6 (intracellular IL-17 FACS, soluble IL-17A ELISA); assay type: cell-based, DBA/1 mice
Experimental: as §1
Because atRA was dissolved in DMSO, similar volumes of DMSO was added to the cultures to exclude the possibility that atRA has a non-specific toxic effect on T cells (FIGS. 1A and B). For the data in FIGS. 1A and B, CD4^+CD25^+ cells were stimulated with immobilized anti-CD3 (1 μg/ml), soluble anti-CD28 (1 μg/ml) and IL-6 (10 ng/ml) with or without atRA (0.05 μM). 3 days later, these cells were restimulated with PMA (0.25 μg/ml) and ionomycin (0.25 μg/ml) for 5 h and brefeldin A (5 μg/ml) for 4 h, and then collected for intracellular IL-17 and IFN-γ staining. Values indicate mean±SEM of four separate experiments and representative of these experiments
as §3
For the experiments in FIG. 2D, CD4^+CD25^+ cells were activated as in FIG. 2A and re-stimulated with IL-6 as for the experiments in FIG. 1A described above. Intracellular IL-17 and IFN-γ expression was determined by FACS staining. Results are representative of three independent experiments. IL-17 and IFN-γ secreted into the supernatants was consistent with intracellular cytokine expression (data not shown).

[9] = anti-CD3/CD28 beads, IL-2, atRA, 4 days

Question: With `CC1=C(/C=C/C(C)=C/C=C/C(C)=C/C(=O)O)C(C)(C)CCC1` [atRA, all-trans retinoic acid] as the compound, how does the “total number of FOXP3+ cells” value ([1]; human nTregs) read?
Answer: significantly increased

Question: What about the “percentage of nTregs expressing FOXP3” value ([1]; human nTregs proliferating in culture, some cultures with IL-1 and/or IL-6) of the same compound?
Answer: decreased significantly less than control nTregs

Question: And the “increase of FOXP3+ cells” value ([1]; human nTregs, ten days of culture)?
Answer: 20 fold

Question: What about the “expansion of nTregs” value [2] of the same compound?
Answer: eight-fold

Question: What about the “suppressive activity of nTregs in the presence of IL-6” value ([3]; atRA added to the cultures with IL-6) of the same compound?
Answer: maintained the suppressive activity

Question: What about the “T cell response with atRA alone” value ([3]; in the presence of IL-6, in the absence of nTregs) of the same compound?
Answer: did not suppress

Question: What about the “suppressive function after restimulation with IL-6” value ([3]; nTregs expanded in the presence of atRA, washed) of the same compound?
Answer: completely intact

Question: What about the “suppressive activities of nTregs expanded with atRA” value ([3]; vs nTregs expanded without atRA) of the same compound?
Answer: even superior

Question: What about the “FOXP3 expressed by nTregs expanded with atRA” value ([4]; atRA 0.05 μM, IL-2 100 U/ml, 7 days) of the same compound?
Answer: remained stable

Question: What about the “down-regulation of FOXP3 expression in the presence of IL-6” value ([4]; atRA 0.05 μM, IL-6 10 ng/ml, 3 days, vs DMSO cultures) of the same compound?
Answer: almost completely prevented

Question: And the “FOXP3 expression following re-stimulation with IL-6” value ([4]; nTregs previously treated with atRA)?
Answer: maintained FOXP3 expression

Question: What about the “suppressive activity of nTregs from CIA mice” value [5] of the same compound?
Answer: show suppressive activity

Question: And the “Stat-3 activation in nTregs” value ([6]; addition of atRA)?
Answer: significantly decreased

Question: And the “CD126 (IL-6Rα chain) expression in activated nTregs” value [6, 9]?
Answer: markedly decreased

Question: What about the “IL-6 Rβ (CD130) expression” value [6, 9] of the same compound?
Answer: significantly decreased

Question: What about the “expression of ROR-γt” value ([6]; atRA-treated nTregs restimulated with IL-6) of the same compound?
Answer: decrease

Question: And the “levels of p-Stat3 expression induced by IL-6 plus TGF-β” value [7]?
Answer: decreases

Question: What about the “up-regulation of IL-6 Rα mRNA induced by TGF-β” value [7] of the same compound?
Answer: strongly inhibits

Question: What about the “activation and proliferation status of nTregs” value ([8]; addition of atRA) of the same compound?
Answer: did not affect

Question: What about the “intracellular IL-17 production” value ([8]; atRA 0.05 μM added to cultures with IL-6 (10 ng/ml), 3 days) of the same compound?
Answer: completely blocked

Question: And the “soluble IL-17 production” value ([8]; atRA 0.05 μM added to cultures with IL-6 (10 ng/ml), ELISA of supernatants)?
Answer: completely blocked

Question: What about the “Th17 and Th1 conversion of expanded nTregs” value ([8]; nTregs expanded with atRA, restimulated with anti-CD3/28 beads with IL-6) of the same compound?
Answer: completely resistant

From US8951796B2, “Methods and compositions for expanding and stabilizing natural regulatory T cells” (University of Southern California, priority 2010, dated 2015)
